In patent publication US10065957B2, “Beta-lactamase inhibitors” (Novartis AG, priority 2016, dated 2018):

Columns and labels:
Assay type in all cases: cell-based
E. coli (KPC-2) = assay: microbe, parasite or virus in culture; conditions: Escherichia coli, read-out: MIC of piperacillin
Method: (§1) MICs were determined by the broth microdilution method in accordance with Clinical and Laboratories Institute (CLSI) guidelines. In brief, fresh overnight bacterial cultures were suspended in sterile saline, and adjusted to a 0.5 McFarland turbidity standard. Bacterial suspensions were then diluted in cation adjusted Mueller-Hinton Broth (MHB II; BBL) to yield a final inoculum of approximately 5×10^5 colony-forming units (CFU)/mL. A master plate of antibiotics was prepared at a concentration equivalent to hundred-fold the highest desired final concentration in 100% dimethyl sulfoxide (DMSO). The master antibiotic plate was then diluted by serial twofold dilution with a multichannel pipette. The resulting dilution series of compounds were diluted 1:10 with sterile water or a solution of beta-lactamase inhibitor prepared at a concentration equivalent to eleven-fold the desired final concentration in deionized water leading to a 10% DMSO final concentration. A volume of 10 μL of the drug dilution series was transferred to 96-well assay plates. Assay plates were inoculated with 90 μL of bacterial suspensions and incubated at 35° C. for 20 hrs. The assay plates were read using a microtiter plate reader (Molecular Devices) at 600 nm as well as by visual observation with a reading mirror. The lowest concentration of the compound that prevented visible growth was recorded as the MIC.
(§2) Synergy or potentiation of beta-lactam antibiotics through inhibition of Q-lactamases was assessed against an isogenic panel of E. coli strains, each expressing a unique beta-lactamase, and against clinical strains.
(§3) Strain NB27273 (BW25113 pspB::Km^r) was obtained from the Keio transposon insertion collection. The strain has the pspB gene replaced by a kanamycin resistance marker (BW25113 pspB::Km^r). This strain was cured of the transposon in pspB via FLP recombinase using published methodology. The resulting strain, BW25113 pspB, was used as a host for multicopy vectors expressing key beta-lactamases. Multicopy plasmids directing constitutive expression of beta-lactamases were established as follows: Synthetic, codon optimized genes encoding E. coli KPC-2, SHV-12 and CTX-M-15 beta-lactamases were made by DNA2.0 (Palo Alto, Calif.). Each of the synthetic fragments were designed to contain NotI and NcoI restriction sites at their termini, allowing ligation into a NotI/NcoI digested pET28a(+) derivative for protein expression. […] The codon optimized nucleotide sequences and relevant primer recognition information is shown below:
(§4) The PCR products were then digested with XhoI and EcoRI and ligated into similarly digested plasmid pAH63-pstS(BlaP). […] Therefore, expression of beta-lactamases from pAH63-pstS(BlaP) based constructs is constitutive and the signal sequence is provided to direct these proteins to the periplasm. […] These fragments were then digested with XbaI and EcoRI, and each was inserted into pBAD18-kan that had been digested with the same enzymes to generate multicopy vectors expressing KPC-2, SHV-12 and CTX-M-15, respectively. These vectors were transformed into BW25113 pspB to generate strains NB27273-CDY0033 (expressing KPC-2), NB27273-CDY0030 (expressing SHV-12), NB27273-CDY0034 (expressing CTX-M-15) and NB27273-CDY0036 (expressing AmpC). The pBAD18-kan vector also contains the TEM promoter region and signal sequence, (but lacks any intact beta-lactamase genes) and was transformed into BW25113 pspB using standard protocols to generate the control strain NB27273-CDY0026.

E. coli (CTX-M-15) = assay: microbe, parasite or virus in culture; conditions: Escherichia coli, Pip alone, read-out: MIC of piperacillin
Method: as §1, §2, §3, §4

E. coli (SHV-12) = assay: microbe, parasite or virus in culture; conditions: Escherichia coli, Pip alone, read-out: MIC of piperacillin
Method: as §1, §2, §3, §4

S. aureus NB01437 (BLA+) = assay: Potentiation of piperacillin in beta-lactam resistant clinical isolate
Method: as §1, with “MIC. Performance of the assay was monitored by testing aztreonam against laboratory quality control strains in accordance with guidelines of the CLSI.” for “MIC.”
as §2

[1] = test system: Enterobacter cloacae NB25055 (CMY-2); assay: as above
Method: as §1, with “MIC. Performance of the assay was monitored by testing aztreonam against laboratory quality control strains in accordance with guidelines of the CLSI.” for “MIC.”
as §2

[2] = test system: K. pneumoniae NB29082 (KPC-2); assay: as above
Method: as §1, with “MIC. Performance of the assay was monitored by testing aztreonam against laboratory quality control strains in accordance with guidelines of the CLSI.” for “MIC.”
as §2

E. coli (TEM-10) = assay: microbe, parasite or virus in culture; conditions: Escherichia coli, Pip alone, read-out: MIC of piperacillin
Method: as §1, §2
(§5) Construction of E. coli isogenic strains, NB27273-CDY0105 (OXA-18) and NB27273-CDY0048 (TEM-10). […] The gene encoding OXA-18 was then digested with XhoI and EcoRI and inserted into this vector, from which the gene for GIM-1 had been removed with XhoI and EcoRI.
From this template DNA, three fragments were generated by PCR using the following primer pairs;
This fragment was then digested with XbaI and EcoRI and inserted into pBAD-kan which was also cut with the same enzymes.
(§6) These final vectors for expression of OXA-18 and TEM-10 were transformed into BW25113 pspB to generate strains NB27273-CDY0105 (expressing OXA-18) and NB27273-CDY0048 (expressing TEM-10).

E. coli (AmpC) = assay: microbe, parasite or virus in culture; conditions: Escherichia coli, Pip alone, read-out: MIC of piperacillin
Method: as §1, with “MIC. Performance of the assay was monitored by testing aztreonam against laboratory quality control strains in accordance with guidelines of the CLSI.” for “MIC.”
as §2
The gene encoding AmpC was PCR amplified from the genome of strain P. aeruginosa PAO1 (NB52019) (GenBank ID U5R279) using primer pair E252 (gccCTCGAGggcgaggccccggcggatcgc) (SEQ ID NO: 17) and E253 (tgaGAATTCtcagcgcttcagcggcacct) (SEQ ID NO: 18).
The PCR products were then digested with XhoI and EcoRI and ligated into similarly digested plasmid pAH63-pstS(BlaP). Plasmid pAH63-pstS(BlaP) is a derivative of plasmid pAH63 (J Bacteriol: 183(21): 6384-6393) made by cloning the TEM-1 (bla) promoter and signal peptide encoding region from plasmid pBAD (J Bacteriol. 1995 July 177(14):4121-30) into plasmid pAH63. This fragment was PCR amplified from pBAD using primer pair E192 (ttcaCTGCAGtgaacgttgcgaagcaacggC) (SEQ ID NO:19) and E194 (TCGAggatcctcgagagcaaaaacaggaaggcaaaatgccg) (SEQ ID NO:20), digested with PstI and BamHI and inserted into similarly digested plasmid pAH63. Therefore, expression of beta-lactamases from pAH63-pstS(BlaP) based constructs is constitutive and the signal sequence is provided to direct these proteins to the periplasm. Plasmid pAH63 based vectors are used for insertion into the genome in single copy, however, to provide higher expression levels to allow more sensitive detection of the susceptibility of compounds to the expressed beta-lactamases, the expression inserts contained in these vectors were moved to the replicative multicopy vector pBAD-Kan (J Bacteriol. 1995 July 177(14):4121-30). To accomplish this, the inserts encompassing the beta-lactamase genes, with the associated TEM promoter and signal sequences, were PCR amplified from their corresponding vectors using primer E268 (ccgTCTAGAcggatggcctttttgcgtttc) (SEQ ID NO:21) and E202 (aatcGAATTCttactgaccattaacgcccaagc) (SEQ ID NO:22) for the KPC2 construct, E204 (aatcGAATTCttaacgctgccagtgctcaatc) (SEQ ID NO:23) for the SHV-12 construct and E203 (aatcGAATTCttacagaccgtcggtgacaatc) (SEQ ID NO:24) for the CTX-M-15 construct. These fragments were then digested with XbaI and EcoRI, and each was inserted into pBAD18-kan that had been digested with the same enzymes to generate multicopy vectors expressing KPC-2, SHV-12 and CTX-M-15, respectively. […]

E. coli (OXA-18) = assay: microbe, parasite or virus in culture
Method: as §1, §2, §5, §6

CCN1CCN(C(=O)N[C@@H](C(=O)N[C@@H]2C(=O)N3C2SC(C)(C)[C@@H]3C(=O)O)c2ccccc2)C(=O)C1=O (stereo partly shown) [Piperacillin]
MIC (E. coli (KPC-2)): > 32 µg/mL
MIC (E. coli (CTX-M-15)): > 32 µg/mL
MIC (E. coli (SHV-12)): > 32 µg/mL
Activity of piperacillin (S. aureus NB01437 (BLA+); piperacillin alone): 64 µg/mL
Activity of piperacillin ([1]; piperacillin alone): >64 µg/mL
Activity of piperacillin ([2]; piperacillin alone): >64 µg/mL
MIC (E. coli (TEM-10)): > 32 µg/mL
MIC (E. coli (AmpC)): > 32 µg/mL
MIC (E. coli (OXA-18); Escherichia coli, Pip alone, read-out: MIC of piperacillin): > 32 µg/mL

C[C@]1(Cn2ccnn2)[C@H](C(=O)O)N2C(=O)C[C@H]2S1(=O)=O [Tazobactam]
Activity of piperacillin with beta-lactamase inhibitor (S. aureus NB01437 (BLA+); Pip + BLI at 4 μg/mL): 1 µg/mL
Activity of piperacillin with beta-lactamase inhibitor ([1]; Pip + BLI at 4 μg/mL): 64 µg/mL
Activity of piperacillin with beta-lactamase inhibitor ([2]; Pip + BLI at 4 μg/mL): >64 µg/mL
MIC of piperacillin with beta-lactamase inhibitor (E. coli (OXA-18); Pip + BLI at 4 μg/mL): 8 µg/mL
